Laboratory results: US12617779B2, “Self degradation-type CDK9 inhibitor prodrug and liposome encapsulating same” (Sumitomo Pharma Co., Ltd., priority 2021, dated 2026)

Columns and labels:
[1] = Liposome encapsulation test, remote loading method (Experimental Example 4); assay type: physicochemical;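 as to Encapsulation efficiency: encapsulated compound as percent of compound amount introduced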;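 as to Encapsulation rate: encapsulated compound as percent of compound in liposome solution after insolubles removed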
Method: For Example 1, Example 2, Example 3, Example 4, Example 5, Example 6, Example 7, Example 8, Example 9, Example 10, Example 11, Example 12, Example 13, Example 14, Example 15, Example 16, Example 17 and Alvocidib, an encapsulation test in liposomes was performed using a remote loading method.
<Liposome Encapsulation Test of Example 1, Example 2, Example 5, Example 6, Example 9, Example 10, Example 11, Example 12, Example 13, Example 14, Example 15, and Example 16>
Hydrogenated soybean phosphatidylcholine (COATSOME NC-21E, manufactured by NOF CORPORATION, 7.77 g), cholesterol (manufactured by Sigma, 2.78 g) and distearoylphosphatidylethanolamine-methoxypolyethylene glycol 2000 (SUNBRIGHT DSPE-020CN, manufactured by NOF CORPORATION, 2.47 g) were dissolved in tert-butyl alcohol (720 mL) warmed to 65° C. The solution was placed in an eggplant flask and frozen in a dry ice-acetone bath, and then the tert-butyl alcohol was removed by evaporation under reduced pressure to give a lipid mixture.
To the above lipid mixture was added a 250 mM ammonium sulfate solution (240 mL), and the mixture was warmed to 65° C., and dispersed by a homogenizer (ULTRA-TURRAX, manufactured by IKA) to give a crude liposome dispersion. Then, the crude liposome dispersion was dispersed by a high pressure homogenizer (Nano-Mizer NM2, manufactured by YOSHIDA KIKAI CO., LTD.) at a pressure of 100 MPa to give liposomes with an average particle size (Z-average) of about 80 nm. The liposome outer solution was replaced with 10 mM L-histidine/10% sucrose solution (pH 6.5) using a dialysis cassette (Slide-A-Lyzer G2 Dialysis Cassettes 20K MWCO, manufactured by Thermo Scientific) to give an empty liposome solution. The solution was filtered through a 0.22 μm membrane filter, and a 10 mM L-histidine/10% sucrose solution (pH 6.5) was added thereto to adjust the total lipid concentration to 50 mM (50 μmol/mL). The lipid concentration was determined by quantitatively analyzing cholesterol using HPLC and calculating the total lipid concentration from the lipid mixing ratio. The amount for the above adjustment was increased or decreased as appropriate.
The compound (10 mg) was weighed, and the empty liposome solution (1 mL) with a total lipid concentration of 50 mM was added thereto. The solution was adjusted to pH 5 to 6 with 1 mol/L hydrochloric acid or 1 mol/L aqueous sodium hydroxide solution as necessary, warmed in a 65° C. water bath for 2 to 3 minutes, and ice-cooled. The mixture was centrifuged at 15,000×g for 5 minutes to precipitate and remove insoluble substances.
The liposome solution (100 μL) after removing insoluble substances was taken on an ultrafiltration filter (Amicon Ultra, 100K, 0.5 mL, manufactured by Merck) and centrifuged at 4° C., 15,000×g for 10 minutes. The compound concentrations in the liposome solution after removing insoluble substances and in the filtrate after ultrafiltration were determined by HPLC, and the encapsulation rate, encapsulation efficiency, and encapsulated compound content per 50 μmol of lipid were calculated by the following formula.
The measurement conditions for HPLC are as follows.
An empty liposome solution with a total lipid concentration of 75 mM was prepared by the same procedure as for the above example compound group. Each compound was weighed, and the empty liposome solution with a total lipid concentration of 75 mM was added thereto such that the compound concentration became 15 mg/mL. The solution was adjusted to pH 5 to 6 with 1 mol/L hydrochloric acid or 1 mol/L aqueous sodium hydroxide solution, warmed in a 65° C. water bath for 3 minutes, and ice-cooled. Hereafter, the encapsulation rate and encapsulation efficiency were calculated by the same procedure as for the above example compound group. The encapsulated compound content per 50 μmol of lipid was calculated by the following formula.
[formula] <Liposome Encapsulation Test of Example 7, Example 8 and Example 17> […]

[2] = Evaluation of conversion rate to active form in human plasma (Experimental Example 3); assay type: in vitro ADME; details: human, 0.2 μmol/L
Outline: (§1)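 LC-MS/MS (positive ESI) followed the parent and released Alvocidib during 37° C incubation of 0.2 μmol/L compound in human or BALB/c mouse plasma, sampled at 0/30/60 or 0/60/120 min. Remaining parent is expressed versus the 0-min peak; conversion versus a 0.2 μmol/L Alvocidib standard.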

[3] = Evaluation of conversion rate to active form in buffer solution (Experimental Example 1); assay type: physicochemical; details: for Conversion to Alvocidib at pH 7.4: pH 7.4, 37° C., up to 3 hours
Outline: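 Compounds at 25 umol/L were held at 37 °C in 50 mM citrate (pH 5.0, 5.5) or phosphate (pH 6.0–7.4) buffers. Remaining compound and Alvocidib formed were quantified by HPLC at 0, 0.5, 1, 2 and 3 h.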

[4] = Evaluation of conversion rate to active form in BALB/c mouse plasma (Experimental Example 3); assay type: in vitro ADME; details: BALB/c, mouse, 0.2 μmol/L
Outline: as §1

[5] = Compound concentration when encapsulated 5 mg/mL
[6] = Compound concentration when encapsulated 10 mg/mL

## CN1CC[C@H](c2c(O)cc(O)c3c(=O)cc(-c4ccccc4Cl)oc23)[C@H](O)C1.Cl [Alvocidib hydrochloride, 2-(2-chlorophenyl)-5,7-dihydroxy-8-[(3S,4R)-3-hydroxy-1-methylpiperidin-4-yl]-4H-chromen-4-one hydrochloride, reference compound]
[1]; [5]
  Encapsulated compound content per 50 μmol of lipid: 4.8 mg
  Encapsulation efficiency: 96.2%
  Encapsulation rate: 99.5%
[1]; [6]
  Encapsulation rate: not encapsulated due to gelation
[1]; concentration 5 mg/mL
  Encapsulation in liposomes: could be encapsulated in liposomes
[1]; concentration of 10 mg/mL
  Encapsulation in liposomes: could not be encapsulated in liposomes

## CC(C)[C@H](N)C(=O)O[C@@H]1CN(C)CC[C@@H]1c1c(O)cc(O)c2c(=O)cc(-c3ccccc3Cl)oc12 [Comparative Example 10, reference compound]
[2]; 0 min
  Production rate (%) of Alvocidib: 0%
  Residual rate (%) of test compound: 100%
[2]; 60 min
  Production rate (%) of Alvocidib: 2%
  Residual rate (%) of test compound: 104%
[2]; 120 min
  Production rate (%) of Alvocidib: 3%
  Residual rate (%) of test compound: 105%
[3]; pH5.0, 0 hr
  Production rate of Alvocidib: 2.0%
  Residual rate: 93.4%
[3]; pH5.0, 0.5 hr
  Production rate of Alvocidib: 2.3%
  Residual rate: 93.2%
[3]; pH5.0, 1 hr
  Production rate of Alvocidib: 2.7%
  Residual rate: 92.7%
[3]; pH5.0, 2 hr
  Production rate of Alvocidib: 3.7%
  Residual rate: 91.4%
[3]; pH5.0, 3 hr
  Production rate of Alvocidib: 4.2%
  Residual rate: 91.2%
[3]; pH5.5, 0 hr
  Production rate of Alvocidib: 2.0%
  Residual rate: 93.2%
[3]; pH5.5, 0.5 hr
  Production rate of Alvocidib: 2.7%
  Residual rate: 92.7%
[3]; pH5.5, 1 hr
  Production rate of Alvocidib: 3.7%
  Residual rate: 91.7%
[3]; pH5.5, 2 hr
  Production rate of Alvocidib: 5.5%
  Residual rate: 89.9%
[3]; pH5.5, 3 hr
  Production rate of Alvocidib: 6.8%
  Residual rate: 88.7%
[3]; pH6.0, 0 hr
  Production rate of Alvocidib: 2.1%
  Residual rate: 93.1%
[3]; pH6.0, 0.5 hr
  Production rate of Alvocidib: 4.4%
  Residual rate: 90.7%
[3]; pH6.0, 1 hr
  Production rate of Alvocidib: 7.2%
  Residual rate: 88.6%
[3]; pH6.0, 2 hr
  Production rate of Alvocidib: 12.8%
  Residual rate: 83.1%
[3]; pH6.0, 3 hr
  Production rate of Alvocidib: 16.3%
  Residual rate: 79.7%
[3]; pH6.5, 0 hr
  Production rate of Alvocidib: 2.3%
  Residual rate: 93.2%
[3]; pH6.5, 0.5 hr
  Production rate of Alvocidib: 5.1%
  Residual rate: 90.9%
[3]; pH6.5, 1 hr
  Production rate of Alvocidib: 8.8%
  Residual rate: 87.4%
[3]; pH6.5, 2 hr
  Production rate of Alvocidib: 15.6%
  Residual rate: 81.1%
[3]; pH6.5, 3 hr
  Production rate of Alvocidib: 20.2%
  Residual rate: 76.6%
[3]; pH7.0, 0 hr
  Production rate of Alvocidib: 2.1%
  Residual rate: 93.2%
[3]; pH7.0, 0.5 hr
  Production rate of Alvocidib: 5.2%
  Residual rate: 92.3%
[3]; pH7.0, 1 hr
  Production rate of Alvocidib: 8.5%
  Residual rate: 88.2%
[3]; pH7.0, 2 hr
  Production rate of Alvocidib: 15.5%
  Residual rate: 81.5%
[3]; pH7.0, 3 hr
  Production rate of Alvocidib: 19.5%
  Residual rate: 75.7%
[3]; pH7.4, 0 hr
  Production rate of Alvocidib: 2.1%
  Residual rate: 93.2%
[3]
  Conversion to Alvocidib at pH 7.4: slowly converted to Alvocidib
[3]; pH7.4, 0.5 hr
  Production rate of Alvocidib: 4.6%
  Residual rate: 92.2%
[3]; pH7.4, 1 hr
  Production rate of Alvocidib: 7.5%
  Residual rate: 89.3%
[3]; pH7.4, 2 hr
  Production rate of Alvocidib: 13.3%
  Residual rate: 82.9%
[3]; pH7.4, 3 hr
  Production rate of Alvocidib: 17.1%
  Residual rate: 78.4%
[4]; 0 min
  Production rate (%) of Alvocidib: 1%
  Residual rate (%) of test compound: 100%
[4]; 60 min
  Production rate (%) of Alvocidib: 5%
  Residual rate (%) of test compound: 84%
[4]; 120 min
  Production rate (%) of Alvocidib: 6%
  Residual rate (%) of test compound: 89%

## CN1CC[C@H](c2c(O)cc(O)c3c(=O)cc(-c4ccccc4Cl)oc23)[C@H](OC(=O)c2ccccc2F)C1 [Comparative Example 12]
[2]; 0 min
  Production rate (%) of Alvocidib: 0%
  Residual rate (%) of test compound: 100%
[2]; 60 min
  Production rate (%) of Alvocidib: 23%
  Residual rate (%) of test compound: 74%
[2]; 120 min
  Production rate (%) of Alvocidib: 32%
  Residual rate (%) of test compound: 58%
[3]; pH7.4, 0 hr
  Production rate of Alvocidib: 1.4%
  Residual rate: 98.0%
[3]
  Conversion to Alvocidib at pH 7.4: slowly converted to Alvocidib
[3]; pH7.4, 0.5 hr
  Production rate of Alvocidib: 1.5%
  Residual rate: 97.5%
[3]; pH7.4, 1 hr
  Production rate of Alvocidib: 1.6%
  Residual rate: 97.6%
[3]; pH7.4, 2 hr
  Production rate of Alvocidib: 1.8%
  Residual rate: 97.6%
[4]; 0 min
  Production rate (%) of Alvocidib: 2%
  Residual rate (%) of test compound: 100%
[4]; 60 min
  Production rate (%) of Alvocidib: 19%
  Residual rate (%) of test compound: 85%
[4]; 120 min
  Production rate (%) of Alvocidib: 27%
  Residual rate (%) of test compound: 76%

## CN1CC[C@H](c2c(OC(=O)N(C)C[C@@H]3COCCN3)cc(O)c3c(=O)cc(-c4ccccc4Cl)oc23)[C@H](O)C1 [Example 17, 2-(2-chlorophenyl)-5-hydroxy-8-[(3S,4R)-3-hydroxy-1-methylpiperidin-4-yl]-4-oxo-4H-1-benzopyran-7-yl methyl{[(3R)-morpholin-3-yl]methyl}carbamate]
[1]; [6]
  Encapsulated compound content per 50 μmol of lipid: 2.4 mg
  Encapsulation efficiency: 23.8%
  Encapsulation rate: 26.5%
